Here are results for one compound from patent US6989263B1, “Method for identifying and using compounds that inactivate HIV-1 and other retroviruses by attacking highly conserved zinc fingers in the viral nucleocapsid protein” (The United States of America as represented by the …, priority 1994, dated 2006).

One experiment concerns the target T1, p7NC (Human immunodeficiency virus type 1 group M subtype B, UniProt P05888).
T1 construct: The NC protein of HIV-1 (MN) p7NC was expressed in E. coli; made in house; host or cells: E. coli (vector pMAL-c)
Nature of the experiment: HPLC analysis of reaction products of purified p7NC with reagent. The format is biochemical, HIV-1. An outline of the steps:
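Purified zinc-reconstituted p7NC (63 μM) incubated 10 min with reagent at 6:1 reagent:protein; products resolved by reversed-phase C-18 HPLC at pH 2 (0.05% TFA) with acetonitrile gradient. Rated fast (full conversion), slow (>10% native remaining) or very slow (>50% native remaining).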

For experiment [1], the target named is T2, HIV NC protein in intact virus (Human immunodeficiency virus type 1 group M subtype B, UniProt P05888).
T2 construct: endogenous in cells; host or cells: intact HIV virions
Nature of the experiment: Cross-linking of NC protein in intact HIV (non-reducing gel-mobility shift, western blot). The format is biochemical, HIV-1.

For another experiment, the system named is HIV-1. As to conditions: incubation of HIV-1; cited from earlier work.
Another experiment addresses HV-1 protease (Human immunodeficiency virus type 1 group M subtype B, UniProt P04585). As to conditions: cited from earlier work.
A further experiment concerns genomic RNA. The note with it: cited from earlier work.
Experiment [2] addresses reverse transcriptase enzyme (Human immunodeficiency virus type 1 group M subtype B, UniProt P04585). The note with it: cited from earlier work.
In experiment [3] the target is HIV-1 CCHC zinc finger array (Human immunodeficiency virus type 1 group M subtype B, UniProt P04591). As to conditions: incubation of HIV-1; cited from earlier work.

Take `NC(=O)c1cccc(N=O)c1` [NOBA, 3-nitrosobenzamide]: the “reaction with purified p7NC (HPLC), in words” value on p7NC is “oxidizes p7NC to products eluting as peaks A and B”. For the same compound, in experiment [1], the “cross-linking of the HIV-1 NC protein in intact virus (gel-mobility shift), in words” value is “caused a cross-linking of the HIV-1 NC protein”. In addition, the “amounts of detected p7NC under non-reducing conditions” value in experiment [1] (HIV-1MN, NOBA 3.0, 0.3, 0.03 mM, immunoblot) is “decreased with increasing NOBA concentration”. The viral inactivation entry in the experiment on HIV-1 is listed as “viral inactivation”. The “enzymatic activity of HV-1 protease” value at HV-1 protease is given as “did not influence”. For the same compound, the “levels of genomic RNA in the inactivated virus” value in the experiment with genomic RNA is recorded as “did not influence”. For the same compound, in experiment [2], the “effect on the reverse transcriptase enzyme” value is “without direct impairment”. The “zinc loss from the HIV-1 CCHC zinc finger array” value in experiment [3] is given as “loss of zinc”.
